Test results taken from the NIST ThermoML archive (doi:10.1016/j.jct.2017.08.004).
Numbers after ± are expanded uncertainties.

Test: molar heat capacity at constant pressure
Settings: 101.33 kPa

OC[C@@H](O)[C@H](O)[C@@H](O)CO [xylitol]
molar heat capacity at constant pressure [J/K/mol]
Settings | Small sample (50 mg) DSC | relaxation calorimetry
261.15 K, Crystal | 182.91 ± 11 | –
262.13 K, Crystal | – | 182.23 ± 7.4
262.15 K, Crystal | 183.56 ± 11 | –
263.15 K, Crystal | 184.15 ± 11 | –
264.15 K, Crystal | 184.93 ± 11 | –
265.15 K, Crystal | 185.58 ± 11 | –
266.15 K, Crystal | 186.01 ± 11 | –
267.15 K, Crystal | 186.68 ± 12 | –
268.15 K, Crystal | 187.58 ± 12 | –
269.15 K, Crystal | 188.3 ± 12 | –
270 K, Crystal | – | 187.42 ± 11
270.15 K, Crystal | 188.75 ± 12 | –
271.15 K, Crystal | 189.44 ± 12 | –
272.13 K, Crystal | – | 189.16 ± 7.7
272.15 K, Crystal | 190.09 ± 12 | –
273.15 K, Crystal | 190.92 ± 12 | 189.56 ± 12
274.15 K, Crystal | 191.54 ± 12 | –
275.15 K, Crystal | 192.36 ± 12 | –
276.15 K, Crystal | 193.1 ± 12 | –
277.15 K, Crystal | 193.74 ± 12 | –
278.15 K, Crystal | 194.49 ± 12 | –
279.15 K, Crystal | 195.25 ± 12 | –
280 K, Crystal | – | 194.26 ± 12
280.15 K, Crystal | 195.98 ± 12 | –
281.15 K, Crystal | 196.83 ± 12 | –
282.15 K, Crystal | 197.52 ± 12 | –
282.21 K, Crystal | – | 195.78 ± 8
283.15 K, Crystal | 198.24 ± 12 | –
284.15 K, Crystal | 198.78 ± 12 | –
285.15 K, Crystal | 199.46 ± 12 | –
286.15 K, Crystal | 200.2 ± 12 | –
287.15 K, Crystal | 200.97 ± 12 | –
288.15 K, Crystal | 201.79 ± 12 | –
289.15 K, Crystal | 202.38 ± 12 | –
290 K, Crystal | – | 201.22 ± 12
290.15 K, Crystal | 203.24 ± 13 | –
291.15 K, Crystal | 204 ± 13 | –
292.15 K, Crystal | 204.53 ± 13 | –
292.34 K, Crystal | – | 202.53 ± 8.2
293.15 K, Crystal | 205.39 ± 13 | –
294.15 K, Crystal | 206.39 ± 13 | –
295.15 K, Crystal | 207.02 ± 13 | –
296.15 K, Crystal | 207.76 ± 13 | –
297.15 K, Crystal | 208.58 ± 13 | –
298.15 K, Crystal | 209.23 ± 13 | 207 ± 13
299.15 K, Crystal | 209.95 ± 13 | –
300 K, Crystal | – | 208.32 ± 13
300.15 K, Crystal | 210.89 ± 13 | –
301.15 K, Crystal | 211.84 ± 13 | –
302.15 K, Crystal | 212.55 ± 13 | –
302.38 K, Crystal | – | 210.13 ± 8.5
303.15 K, Crystal | 213.48 ± 13 | –
304.15 K, Crystal | 214.26 ± 13 | –
305 K, Crystal | 215.28 ± 13 | –
305.15 K, Crystal | 215.11 ± 13 | –
306.15 K, Crystal | 216.14 ± 13 | –
307.15 K, Crystal | 217.06 ± 13 | –
308.15 K, Crystal | 217.82 ± 13 | –
309.15 K, Crystal | 218.75 ± 13 | –
310 K, Crystal | 219.82 ± 14 | –
310.15 K, Crystal | 219.97 ± 14 | –
311.15 K, Crystal | 220.76 ± 14 | –
312.15 K, Crystal | 221.67 ± 14 | –
313.15 K, Crystal | 222.64 ± 14 | –
314.15 K, Crystal | 223.41 ± 14 | –
315 K, Crystal | 224.06 ± 14 | –
315.15 K, Crystal | 224.2 ± 14 | –
316.15 K, Crystal | 225.05 ± 14 | –
317.15 K, Crystal | 225.99 ± 14 | –
318.15 K, Crystal | 226.72 ± 14 | –
319.15 K, Crystal | 227.57 ± 14 | –
320 K, Crystal | 228.13 ± 14 | –
320.15 K, Crystal | 228.44 ± 14 | –
321.15 K, Crystal | 229.1 ± 14 | –
322.15 K, Crystal | 229.81 ± 14 | –
323.15 K, Crystal | 230.76 ± 14 | –
324.15 K, Crystal | 231.54 ± 14 | –
325 K, Crystal | 232.15 ± 14 | –
325.15 K, Crystal | 232.32 ± 14 | –
326.15 K, Crystal | 233.13 ± 14 | –
327.15 K, Crystal | 234.07 ± 14 | –
328.15 K, Crystal | 234.91 ± 14 | –
329.15 K, Crystal | 235.68 ± 15 | –
330 K, Crystal | 236.23 ± 15 | –
330.15 K, Crystal | 236.5 ± 15 | –
331.15 K, Crystal | 237.35 ± 15 | –
332.15 K, Crystal | 238.2 ± 15 | –
333.15 K, Crystal | 238.98 ± 15 | –
334.15 K, Crystal | 239.74 ± 15 | –
335 K, Crystal | 240.51 ± 15 | –
335.15 K, Crystal | 240.54 ± 15 | –
336.15 K, Crystal | 241.37 ± 15 | –
337.15 K, Crystal | 242.09 ± 15 | –
338.15 K, Crystal | 242.99 ± 15 | –
339.15 K, Crystal | 244.05 ± 15 | –
340 K, Crystal | 245.1 ± 15 | –
340.15 K, Crystal | 244.86 ± 15 | –
341.15 K, Crystal | 245.84 ± 15 | –
342.15 K, Crystal | 246.78 ± 15 | –
343.15 K, Crystal | 247.9 ± 15 | –
345 K, Crystal | 250.14 ± 15 | –
384.05 K, Liquid | 437.55 ± 27 | –
384.15 K, Liquid | 437.54 ± 27 | –
385 K, Liquid | 437.31 ± 27 | –
385.15 K, Liquid | 437.23 ± 27 | –
386.15 K, Liquid | 436.89 ± 27 | –
387.15 K, Liquid | 436.55 ± 27 | –
388.15 K, Liquid | 436.95 ± 27 | –
389.15 K, Liquid | 436.95 ± 27 | –
390 K, Liquid | 437.71 ± 27 | –
390.15 K, Liquid | 437.09 ± 27 | –
391.15 K, Liquid | 437.18 ± 27 | –
392.15 K, Liquid | 437.31 ± 27 | –
393.15 K, Liquid | 437.7 ± 27 | –
394.15 K, Liquid | 438.11 ± 27 | –
395 K, Liquid | 438.53 ± 27 | –
395.15 K, Liquid | 438.36 ± 27 | –
396.15 K, Liquid | 438.65 ± 27 | –
397.15 K, Liquid | 439 ± 27 | –
398.15 K, Liquid | 439.02 ± 27 | –
399.15 K, Liquid | 439.36 ± 27 | –
400 K, Liquid | 439.66 ± 27 | –
400.15 K, Liquid | 439.81 ± 27 | –
401.15 K, Liquid | 440.13 ± 27 | –
402.15 K, Liquid | 440.23 ± 27 | –
403.15 K, Liquid | 440.54 ± 27 | –
404.15 K, Liquid | 441 ± 27 | –
405 K, Liquid | 440.98 ± 27 | –
405.15 K, Liquid | 441.38 ± 27 | –
406.15 K, Liquid | 441.87 ± 27 | –
407.15 K, Liquid | 442.08 ± 27 | –
408.15 K, Liquid | 442.44 ± 27 | –
409.15 K, Liquid | 442.7 ± 27 | –
410 K, Liquid | 442.38 ± 27 | –
410.15 K, Liquid | 442.88 ± 27 | –
411.15 K, Liquid | 443.4 ± 27 | –
412.15 K, Liquid | 443.35 ± 27 | –
413.15 K, Liquid | 443.38 ± 27 | –
414.15 K, Liquid | 443.78 ± 27 | –
415 K, Liquid | 443.73 ± 27 | –
415.15 K, Liquid | 443.82 ± 27 | –
416.15 K, Liquid | 444.07 ± 27 | –
417.15 K, Liquid | 444.35 ± 27 | –
418.15 K, Liquid | 444.54 ± 27 | –
419.15 K, Liquid | 444.75 ± 27 | –
420 K, Liquid | 444.92 ± 27 | –
420.15 K, Liquid | 444.83 ± 27 | –
421.15 K, Liquid | 444.89 ± 27 | –
422.15 K, Liquid | 445.1 ± 27 | –
423.15 K, Liquid | 445.32 ± 27 | –
424.15 K, Liquid | 445.31 ± 27 | –
425 K, Liquid | 445.83 ± 27 | –
425.15 K, Liquid | 445.36 ± 27 | –
426.15 K, Liquid | 445.64 ± 27 | –
427.15 K, Liquid | 445.75 ± 27 | –
428.15 K, Liquid | 445.78 ± 27 | –
429.15 K, Liquid | 445.83 ± 27 | –
430 K, Liquid | 446.33 ± 28 | –
430.15 K, Liquid | 445.91 ± 27 | –
431.15 K, Liquid | 446.11 ± 28 | –
432.15 K, Liquid | 446.26 ± 28 | –
433.15 K, Liquid | 446.16 ± 28 | –
434.15 K, Liquid | 446.18 ± 28 | –
435 K, Liquid | 446.32 ± 28 | –
435.15 K, Liquid | 446.7 ± 28 | –
436.15 K, Liquid | 446.78 ± 28 | –
437.15 K, Liquid | 446.54 ± 28 | –
438.15 K, Liquid | 446.6 ± 28 | –
